# According to patent US8673913B2, “SHP-2 phosphatase inhibitor” (Case Western Reserve University, priority 2009, dated 2014):
# Key:
# [1] = target: T1, SHP-2 PTP domain GST fusion protein (Homo sapiens, UniProt Q06124); assay: in vitro protein tyrosine phosphatase assay, SHP-2 (Malachite Green); format: biochemical; design: SHP-2 PTP domain GST fusion protein purified in house was used as the enzyme; made in house; details: compound at 100 μM; read-out: inhibition of SHP-2 enzymatic activity
# T1 sequence (Q06124 247-517 limits assumed): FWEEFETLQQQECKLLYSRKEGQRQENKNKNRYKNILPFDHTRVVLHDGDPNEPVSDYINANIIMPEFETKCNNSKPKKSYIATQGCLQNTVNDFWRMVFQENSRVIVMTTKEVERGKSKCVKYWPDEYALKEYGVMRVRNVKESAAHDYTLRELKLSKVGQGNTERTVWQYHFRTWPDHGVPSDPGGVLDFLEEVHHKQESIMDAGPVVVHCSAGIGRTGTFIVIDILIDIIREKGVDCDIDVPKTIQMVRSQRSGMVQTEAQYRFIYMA
# Text: Candidate compounds were screened using the in vitro protein tyrosine phosphatase (PTP) assay kit (Sigma, St. Lois, Mo.). SHP-2 PTP domain GST fusion protein purified in house was used as the enzyme and a phospho-peptide corresponding to the surrounding sequence of pTyr^1146 in the insulin receptor (Thr-Arg-Asp-Ile-Tyr[PO3H2]-Glu-Thr-Asp-Tyr-Tyr) were used as the substrate. The assay determines free phosphate generated by dephosphorylation of the PTP substrate using the Malachite Green reagent. Briefly, 0.5 μg of GST-SHP-2 PTP was incubated in 40 μL assay buffer (25 mM Tris-HCl, PH7.4, 50 mM NaCl, 5 mM DTT, and 2.5 mM EDTA) with test compounds at various concentrations or DMSO at room temperature for 30 min. The PTP substrate was then added to a final concentration of 0.2 mM. The system was incubated at 30° C. for 30 min. Finally, 50 μl of Malachite Green solution was added and OD620 was measured after 5 min. In the phosphatase assays for SHP-1, CD45, TC-PTP, PTP-MEG2 (PTPN9), and LAR (PTPRF), procedures were similar, with the exception that GST-SHP-1, GST-CD45 cytoplasmic domain, GST-TC-PTP, GST-PTP-MEG2 PTP domain, and GST-LAR PTP domain purchased from Biomol International, L.P. (Plymouth Meeting, Pa.) were used instead as the enzymes.
# Candidate compounds identified by CADD were screened by the in vitro tyrosine phosphatase assay as described in the Experimental Section. The GST-SHP-2 PTP domain fusion protein was incubated with the compounds at room temperature for 30 min before the phospho-peptide substrate was added to the assay systems, allowing compounds to bind to target sites in SHP-2. Each test compound was dissolved in DMSO. Initial concentration of the test compounds was 100 μM. In the experimental assay, DMSO was included as the negative control and sodium orthovanadate (100 μM), a general non-specific tyrosine phosphatase inhibitor, was used as the positive control. From the 165 commercially available compounds tested, we identified 9 compounds that inhibit SHP-2 catalytic activity with various efficiencies (FIG. 3A). […] The inhibitory effects of the compounds were dose-dependent.
# [2] = target: T1, SHP-2 PTP domain GST fusion protein; assay: fluorescence titration (quenching of SHP-2 fluorescence); format: binding; design: Purified SHP-2 PTP domain GST-fusion protein was diluted into 20 mM Tris-HCl; made in house; details: SHP-2 protein 3 μM, excitation 295 nm
# Procedure: For all experiments, Purified SHP-2 PTP domain GST-fusion protein was diluted into 20 mM Tris-HCl, pH 7.5. Fluorescence spectra were recorded with a Luminescence Spectrometer LS50 (Perkin-Elmer, Boston, Mass.). Titrations were performed by increasing the test compound concentration while maintaining the SHP-2 protein concentration at 3 μM. Contributions from background fluorescence of the inhibitors were accounted for by subtracting the fluorescence of the inhibitors alone from the of the protein-inhibitor solution. The excitation wavelength was 295 nm and fluorescence was monitored from 360 to 500 nm. All reported fluorescence intensities are relative values and are not corrected for wavelength variations in detector response.
# To validate that the active compounds identified were binding directly to the SHP-2 protein, we determined whether the active compounds directly interacted with the SHP-2 PTP domain using fluorescence quenching and taking advantage of the four tryptophans in the PTP domain, with Trp248 located 15 Å from the putative pY+5 pocket and Trp423 located 8 Å from the phosphatase active site. […] Therefore, their binding to SHP-2 protein could not be determined using this measurement. Thus, the fluorescence quenching experiments indicate that at least four active compounds identified do directly bind to SHP-2, thereby leading to their biological activities.
Compound,inhibition at 100 µM [1],quenching of SHP-2 fluorescence [2]
O=C(CCCn1c(=O)c2cccn2c2cccnc21)NCc1ccccc1F [#212],45%,
CNC(=S)NNC(=O)c1csc(-c2cccs2)n1 [#226],40%,
CCc1ccc(OCC(=O)Nc2ccc(S(N)(=O)=O)cc2)cc1 [#270],,did not show significant quenching
CSc1ccc(C2C(C#N)=C(N)Oc3[nH]nc(-c4ccccc4Cl)c32)cc1 (centres unmarked) [#284],,strong quenching
CNC(=S)NNC(=O)CSCCS(=O)(=O)c1ccccc1 [#234],,did not show significant quenching
